What was measured:
[1] = test system: calmodulin; conditions: cited from earlier work
[2] = test system: calmodulin (CaM-agarose); assay: binding of Ndr and deletion mutants from COS-1 cell lysates to CaM-agarose
Source text: In addition, the ability of untagged Ndr to interact with CaM is investigated. COS-1 cells are transfected with pECE or with derivative plasmids encoding wild-type Ndr, NdrΔ65-81 or NdrΔ1-84 (Millward, T. A., et al., (1995) Proc. Natl. Acad. Sci. USA 92, 5022-5026) using DEAE-dextran (Seed, B. and Aruffo, A. (1987) Proc. Natl. Acad. Sci. USA 84, 3365-3369). Seventy-two hours after transfection, cells are scraped into ice-cold phosphate-buffered saline (PBS), spun down, and disrupted in buffer A (TBS containing 1 mM dithiothreitol, 0.5 mM phenylmethylsulfonyl fluoride, 4 μM leupeptin and 1 mM benzamidine) using a tight-fitting all-glass dounce homogenizer. Extracts (20 μg) are adjusted to 1 mg/ml, supplemented with either 1 mM CaCl2 or 1 mM EGTA and then mixed for 2 h with 6 μl CaM-agarose. After washing three times with 1 ml of the corresponding binding buffer, the beads are eluted with buffer A containing 5 mM EGTA. Equal portions of the unbound and EGTA-eluted fractions are analysed by immunoblofting with anti-Ndr antibodies.
Samples are separated by SDS-PAGE and electroblotted to Immobilon-P membranes (Millipore). Blots are incubated in blocking buffer (50 mM Tris-HCl pH 7.5, 150 mM NaCl, 1% (v/v) Triton X-1 00, 0.5% (v/v) Tween 20, 5% (w/v) skim milk powder) and then probed for 2 h with primary antibodies diluted in the same buffer. Ndr and GST-Ndr are detected with Ab^452-465 at 4 μg/ml (Millward, T. A., et al., Op. Cit.); GST is detected with an anti-GST antiserum (1 :1000 dilution). Bound antibodies are detected using horseradish peroxidase-conjugated donkey anti-rabbit IgG antibodies and ECL substrates (Amersham).
To verify whether this domain of Ndr is indeed responsible for its interaction with CaM, deletion mutants of Ndr are expressed in COS-1 cells and tested for CaM binding as above. […] In lysates supplemented with Ca^2 , deletion of amino acids 65-81 cause a large reduction in CaM binding (to ~10% of the level of wild-type binding) as assessed by western blotting.

[3] = test system: S100B; assay: co-immunoprecipitation of Ndr with anti-S100B from COS-1 cells; type: cell-based; conditions: co-expressed with S100B
Method: For expression of Ndr and S100B in mammalian cells, the cDNAs encoding Ndr and S100B are cloned into the pECE vector, which directs expression driven by an SV40-derived promoter. In addition, an amino-terminal truncation mutant of Ndr lacking the first 84 amino acids (1-84) is used.
The plasmids encoding Ndr and S100B are transfected into COS-1 cells, either alone or in combination. Seventy-two hours later, cells extracts are prepared and immunoprecipitated with an antibody recognising S100B. In an anti-Ndr western blot of the cell extracts, it is shown that Ndr is expressed an expected.

## Ndr: nuclear serine/threonine protein kinase
[1]
  binding to calmodulin: capable of binding to calmodulin
[2]; lysate supplemented with EGTA
  binding to CaM-agarose: no detectable binding
[2]; lysates supplemented with Ca^2+
  binding to CaM-agarose: quantitatively and selectively removed from the lysate by CaM-agarose
[3]
  co-immunoprecipitation with anti-S100B: anti-S100B antibodies co-immunoprecipitated Ndr

Source: US6258776A, “Calcium-regulated kinase” (priority 1997, dated 2001)
